Results published in patent US20100234226A1, “HERBICIDE COMBINATION COMPRISING DIMETHOXYTRIAZINYL-SUBSTITUTED DIFLUOROMETHANESULFONYLANILIDES” (BAYER CROPSCIENCE AG, priority 2008, published 2010).
Read-outs that look alike come from different tables or passages of the source.

Assays:
Format in all cases: in vivo
[1] = tested on: Zea mays (ZEAMX); test: Post-emergence action against weeds, greenhouse pot test, Zea mays; settings: for inhibition at 200 g/ha: 200 g of ai/ha
Method: (§1) Seeds or rhizome pieces of mono- and dicotyledonous harmful and useful plants were placed in peat pots (diameter 4 cm) filled with sandy loam and then covered with soil. The pots were kept in a greenhouse under optimum conditions. In addition, harmful plants encountered in paddy rice cultivation were cultivated in pots with a water level 2 cm above the soil surface.
(§2) About three weeks after the start of the cultivation, the test plants were treated at the 2- to 3-leaf stage. The herbicides, formulated as powder or liquid concentrates, were, either alone or in the combinations according to the invention, sprayed in various dosages on to the green parts of the plants using an application rate of 600 l of water/ha (converted). For further cultivation of the plants, the pots were then again kept under optimum conditions in a greenhouse.
(§3) The visual scoring of the herbicidal effects was carried out in intervals up to 21 days after the treatment. Scoring was carried out in percent in comparison to the untreated control plants. 0%=no herbicidal activity, 100%=complete herbicidal activity=complete kill.
(§4) The percentages from the treatments with the herbicides alone (=individual application) and with the combinations according to the invention (=mixtures) were employed to calculate interactions using the method of Colby. When the observed efficacies of the mixtures exceed the formal sum of the values of the tests with individual applications, they also exceed the expected value according to Colby, which is calculated using the formula below (cf. S. R. Colby; in Weeds 15 (1967) pp. 20 to 22):
(§5) Here: • A, B=activity of components A and B in percent at a dosage of a and b g of ai/ha (=gramm of active substance per hectare), respectively. • E=expected value in % at a dosage of a+b g of ai/ha.
(§6) The combinations according to the invention of herbicides from group (A) with herbicides from group (B) were tested on a broad spectrum of important harmful plants (weed grasses, broad-leaved weeds/Cyperaceae) and useful plants: Triticum aestivum (TRZAS), Stellaria media (STEME), Lolium multiflorum (LOLMU), Veronica persica (VERPE), Alopecurus myosuroides (ALOMY), Matricaria inodora (MATIN), Brassica napus (BRSNW), Viola tricolor (VIOTR), Avena fatua (AVEFA), Amaranthus retroflexus (AMARE), Zea mays (ZEAMX), Pharbitis purpurea (PHBPU), Setaria viridis (SETVI), Fallopia (ex Polygonum) convolvulus (POLCO), Echinochloa crus-gaffi (ECHCG), Abuthilon theophrasti (ABUTH), Cyperus esculentus (CYPES), Oryza sativa (ORYSA).
(§7) Of particular interest are the results shown in the tables (Tab.) below, where the following key is used: • (1) EPPO code (former Bayer code) for the treated plant (see above) • (2) Time of scoring: DAT (days after treatment) • (3) Component A tested (identifying number) • (4) Component B tested (identifying number) • (5) Dosage component A [g of ai/ha] • (6) Dosage component B [g of ai/ha] • (7) % activity found • (8) E value (calculated according to Colby; see above) • (9) Comments: “SYNERGY”=synergistic interaction (E value <% activity found); “SAFENING”=safener action on useful plant (E value >% activity found)

[2] = tested on: Lolium multiflorum (LOLMU); test: Post-emergence action against weeds, greenhouse pot test, Lolium multiflorum; settings: read-out: % activity found; for inhibition at 200 g/ha: 200 g of ai/ha; for inhibition at 600 g/ha: 600 g of ai/ha
Method: as §1, §2, §3, §4, §5, §6, §7

[3] = tested on: Veronica persica (VERPE); test: Post-emergence action against weeds, greenhouse pot test, Veronica persica; settings: read-out: % activity found; for inhibition at 4 g/ha: 4 g of ai/ha; for inhibition at 12 g/ha: 12 g of ai/ha
Method: as §1, §2, §3, §4, §5, §6, §7

[4] = tested on: Matricaria inodora (MATIN); test: Post-emergence action against weeds, greenhouse pot test, Matricaria inodora; settings: for inhibition at 200 g/ha: 200 g of ai/ha; for inhibition at 600 g/ha: 600 g of ai/ha; for (7) % activity found: MATIN
Method: as §1, §2, §3, §4, §5

[5] = tested on: Setaria viridis (SETVI); test: Post-emergence action against weeds, greenhouse pot test, Setaria viridis; settings: 504 h, read-out: % activity found
Method: as §1, §2, §3, §4
(§8) Here: • A, B=activity of components A and B in percent at a dosage of a and b g of ai/ha (=gramm of active substance per hectare), respectively. • E=expected value in % at a dosage of a+b g of ai/ha. […]

[6] = tested on: Fallopia (ex Polygonum) convolvulus (POLCO); test: Post-emergence action against weeds, greenhouse pot test, Fallopia convolvulus
Method: as §1, §2, §3, §4, §5, §6, §7

[7] = tested on: Viola tricolor (VIOTR); test: Post-emergence action against weeds, greenhouse pot test, Viola tricolor; settings: for inhibition at 200 g/ha: 200 g of ai/ha
Method: as §1, §2, §3, §4, §5, §6, §7

[8] = tested on: Amaranthus retroflexus (AMARE); test: Post-emergence action against weeds, greenhouse pot test, Amaranthus retroflexus; settings: read-out: % activity found
Method: as §1, §2, §3, §4, §5, §6, §7

[9] = tested on: Cyperus esculentus (CYPES); test: Post-emergence action against weeds, greenhouse pot test, Cyperus esculentus
Method: as §1, §2, §3, §4, §5

[10] = tested on: Triticum aestivum (TRZAS); test: Post-emergence action against weeds, greenhouse pot test, Triticum aestivum; settings: 240 h, read-out: % activity found
Method: as §1, §2, §3, §4, §8

[11] = Zea mays, post-emergence, 240 h, read-out: % activity found
[12] = Fallopia convolvulus, post-emergence, 504 h, read-out: % activity found
[13] = Tripleurospermum inodorum, post-emergence, 240 h, 10 DAT, read-out: % activity found
[14] = Tripleurospermum inodorum, post-emergence, 504 h, 21 DAT, read-out: % activity found

Structure (SMILES): CCS(=O)(=O)Oc1ccc2c(c1)C(C)(C)CO2 [B-9, 2,3-dihydro-3,3-dimethyl-5-benzofuranyl ethanesulfonate]
- inhibition at 100 g/ha [1, 11]: 10%
- inhibition at 300 g/ha [1, 11]: 20%
- inhibition at 300 g/ha ([1]; Zea mays, post-emergence, 504 h, read-out: % activity found): 0%
- inhibition at 300 g/ha ([2]; 504 h): 0%
- inhibition at 100 g/ha ([3]; 504 h): 0%
- inhibition at 100 g/ha ([4]; Tripleurospermum inodorum, post-emergence, 504 h, read-out: % activity found): 50%
- inhibition at 100 g/ha [5]: 40%
- inhibition at 100 g/ha [6, 12]: 0%
- inhibition at 300 g/ha [6, 12]: 30%

Structure (SMILES): CCOC1Oc2ccc(OS(C)(=O)=O)cc2C1(C)C (racemic) [B-49, (±)-2-ethoxy-2,3-dihydro-3,3-dimethyl-5-benzofuranyl methanesulfonate]
- inhibition at 200 g/ha ([1]; Zea mays, post-emergence, 240 h, 10 DAT, read-out: % activity found): 30%
- inhibition at 600 g/ha ([1]; Zea mays, post-emergence, 240 h, 10 DAT, 600 g of ai/ha, read-out: % activity found): 40%
- inhibition at 200 g/ha ([1]; Zea mays, post-emergence, 504 h, 21 DAT, read-out: % activity found): 0%
- inhibition at 200 g/ha ([2]; 240 h, 10 DAT): 0%
- inhibition at 600 g/ha ([2]; 240 h, 10 DAT): 10%
- inhibition at 200 g/ha ([2]; 504 h, 21 DAT): 0%
- inhibition at 600 g/ha ([2]; 504 h, 21 DAT): 0%
- inhibition at 200 g/ha ([3]; 504 h, 21 DAT, 200 g of ai/ha): 20%
- inhibition at 200 g/ha [4, 13]: 0%
- inhibition at 600 g/ha [4, 13]: 0%
- inhibition at 200 g/ha [4, 14]: 20%
- inhibition at 600 g/ha [4, 14]: 30%
- inhibition at 200 g/ha ([6]; Fallopia convolvulus, post-emergence, 504 h, 21 DAT, 200 g of ai/ha, read-out: % activity found): 40%
- inhibition at 600 g/ha ([6]; Fallopia convolvulus, post-emergence, 504 h, 21 DAT, 600 g of ai/ha, read-out: % activity found): 50%
- inhibition at 200 g/ha ([7]; Viola tricolor, post-emergence, 240 h, 10 DAT, read-out: % activity found): 0%
- inhibition at 200 g/ha ([7]; Viola tricolor, post-emergence, 504 h, 21 DAT, read-out: % activity found): 0%
- inhibition at 600 g/ha ([7]; Viola tricolor, post-emergence, 504 h, 21 DAT, 600 g of ai/ha, read-out: % activity found): 0%
- inhibition at 200 g/ha ([8]; 504 h, 21 DAT, 200 g of ai/ha): 50%
- inhibition at 600 g/ha ([9]; Cyperus esculentus, post-emergence, 504 h, 21 DAT, 600 g of ai/ha, read-out: % activity found): 0%

Structure (SMILES): CNC1=C(c2cccc(C(F)(F)F)c2)C(=O)C(c2ccccc2)O1 (racemic) [B-61, (±)-5-(methylamino)-2-phenyl-4-[3-(trifluoromethyl)phenyl]-3(2H)-furanone]
- (7) % activity found ([1]; ZEAMX, 21 DAT, B-61 alone, dose (6) 120): 50%
- inhibition at 40 g/ha [1, 11]: 40%
- inhibition at 120 g/ha [1, 11]: 50%
- inhibition at 40 g/ha ([2]; 240 h): 50%
- inhibition at 40 g/ha ([2]; 504 h): 40%
- (7) % activity found ([4]; 21 DAT, B-61 alone, dose (6) 40): 50%
- (7) % activity found ([4]; 21 DAT, B-61 alone, dose (6) 120): 50%
- (7) % activity found ([4]; 21 DAT, Table 65, B-61 alone, dose (6) 40): 50%
- (7) % activity found ([7]; VIOTR, 21 DAT, B-61 alone, dose (6) 120): 70%
- (7) % activity found ([9]; CYPES, 21 DAT, B-61 alone, dose (6) 40): 20%
- inhibition at 40 g/ha [10]: 30%

Structure (SMILES): COc1nc(OC)nc(C(=O)c2cccc(F)c2N(C)S(=O)(=O)C(F)F)n1 [A-1]
- inhibition at 4 g/ha ([3]; 240 h, 10 DAT): 60%
- inhibition at 12 g/ha ([3]; 240 h, 10 DAT): 60%
- inhibition at 4 g/ha ([3]; 504 h, 21 DAT): 30%
- inhibition at 12 g/ha ([3]; 504 h, 21 DAT): 40%
- (7) % activity found ([4]; 21 DAT, A-1 alone, dose (5) 4): 50%
- (7) % activity found ([4]; 21 DAT, Table 65, A-1 alone, dose (5) 12): 60%
- inhibition at 4 g/ha ([4]; Tripleurospermum inodorum, post-emergence, 10/21 DAT, 4 g of ai/ha, read-out: % activity found): 50%
- % activity found ([6]; 21 DAT, 12 g of ai/ha): 75%
- inhibition at 4 g/ha ([7]; Viola tricolor, post-emergence, 240 h, 10 DAT, 4 g of ai/ha, read-out: % activity found): 20%
- inhibition at 4 g/ha ([8]; 240 h, 10 DAT, 4 g of ai/ha): 70%
- inhibition at 12 g/ha ([9]; Cyperus esculentus, post-emergence, 240 h, 10 DAT, 12 g of ai/ha, read-out: % activity found): 70%
